Measured values taken from patent US8946268B2, “Modulators of HEC1 activity and methods therefor” (Taivex Therapeutics, Inc., priority 2010, dated 2015).

assay: Combination of Hec1 inhibitors with chemotherapeutic inhibitors; details: preliminary data

Row | Compound | effect in combination of Hec1 inhibitors with chemotherapeutic inhibitors
1 | CC(=O)O[C@H]1C(=O)[C@@]2(C)[C@H]([C@H](OC(=O)c3ccccc3)[C@]3(O)C[C@H](OC(=O)[C@H](O)[C@@H](NC(=O)c4ccccc4)c4ccccc4)C(C)=C1C3(C)C)[C@]1(OC(C)=O)CO[C@@H]1C[C@@H]2O [Taxol] | synergistic effect
2 | COc1cccc2c1C(=O)c1c(O)c3c(c(O)c1C2=O)C[C@@](O)(C(=O)CO)C[C@@H]3O[C@H]1C[C@H](N)[C@H](O)[C@H](C)O1 [doxorubicin] | at most additive effect
3 | CC[C@]1(O)C[C@@H]2CN(CCc3c([nH]c4ccccc34)[C@@](C(=O)OC)(c3cc4c(cc3OC)N(C)[C@H]3[C@@](O)(C(=O)OC)[C@H](OC(C)=O)[C@]5(CC)C=CCN6CC[C@]43[C@@H]65)C2)C1 [vinblastine] | synergistic effect
4 | CC[C@]1(O)C[C@H]2CN(CCc3c([nH]c4ccccc34)[C@@](C(=O)OC)(c3cc4c(cc3OC)N(C=O)[C@H]3[C@@](O)(C(=O)OC)[C@H](OC(C)=O)[C@]5(CC)C=CCN6CC[C@]43[C@@H]65)C2)C1 [vincristine] | synergistic effect
